Reference: US20090221642A1, “MUSCARINIC RECEPTOR AGONISTS, COMPOSITIONS, METHODS OF TREATMENT THEREOF, AND PROCESSES FOR PREPARATION THEREOF-176” (AstraZeneca AB, priority 2008, published 2009)
Read-outs that look alike come from different tables or passages of the source.

What was measured:
Type in all cases: cell-based
[1] = target: T1, hM1 (human Muscarinic receptor subtype 1) (Homo sapiens, UniProt P11229); assay: Human M1 calcium mobilization FLIPR assay; conditions: hM1 expressed in CHO cells, intracellular Ca2+ release
T1 construct: expressed in transfected cells; host or cells: CHO cells (Chinese hamster ovary cells, ATCC)
T1 sequence (P11229 1-460): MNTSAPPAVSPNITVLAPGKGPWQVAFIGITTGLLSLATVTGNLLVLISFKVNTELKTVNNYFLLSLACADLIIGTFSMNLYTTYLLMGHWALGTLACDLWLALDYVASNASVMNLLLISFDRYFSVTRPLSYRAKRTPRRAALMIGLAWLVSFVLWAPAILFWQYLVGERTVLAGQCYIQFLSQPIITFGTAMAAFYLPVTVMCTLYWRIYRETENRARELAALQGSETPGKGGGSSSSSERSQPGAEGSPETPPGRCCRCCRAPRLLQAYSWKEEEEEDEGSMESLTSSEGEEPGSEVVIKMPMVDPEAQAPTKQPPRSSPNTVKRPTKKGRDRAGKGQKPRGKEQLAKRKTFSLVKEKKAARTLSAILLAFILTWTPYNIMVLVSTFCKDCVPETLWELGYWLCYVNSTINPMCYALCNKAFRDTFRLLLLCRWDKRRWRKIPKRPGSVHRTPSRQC
Procedure, shortened: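 CHO cells expressing the receptor, dye-loaded at 37°C for 60 min, read on FLIPR at 510-570 nm. Agonism taken from compound-induced Ca2+ rise (max RFU for M1); M3/M5 inhibition measured against 2 nM acetylcholine using max minus min RFU. 10-point threefold dilutions, sigmoidal fits.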

[2] = target: T2, hM3 (human Muscarinic receptor subtype 3) (Homo sapiens, UniProt P20309); assay: Human M3 calcium mobilization FLIPR assay; conditions: hM3 expressed in CHO cells, intracellular Ca2+ release
T2 construct: expressed in transfected cells; host or cells: CHO cells (Chinese hamster ovary cells, ATCC)
Experimental: (§1) Human M1, rat M1, human M3 and human M5 Calcium Mobilization FLIPR™ Assay
(§2) The compound activity in the present invention (EC50 or IC50) is measured using a 384 plate-based imaging assay that monitors drug induced intracellular Ca^2+ release in whole cells. Activation of hM1 (human Muscarinic receptor subtype 1, gene bank access NM_000738), rM1 (rat Muscarinic receptor subtype 1, gene bank access NM_080773), hM3 (human Muscarinic receptor subtype 3, gene bank access NM_000740NM_000740) and hM5 (human Muscarinic receptor subtype 5, gene bank access NM_0121258), receptors expressed in CHO cells (Chinese hamster ovary cells, ATCC) is quantified in a Molecular Devices FLIPR II™ instrument as an increase in fluorescent signal. Inhibition of hM3 and hM5 by compounds is determined by the decrease in fluorescent signal in response to 2 nM acetylcholine activation.
(§3) Prior to experiment, the cell culture medium is removed from the plates by inversion. […] Plates are incubated at 37° C. for 60 minutes prior to start the experiment. The incubation is terminated by washing the cells four times in assay buffer, leaving a residual 25 μl buffer per well. Cell plates are then transferred to the FLIPR, ready for compound additions.
(§4) The day of experiment, acetylcholine and compounds are diluted in assay buffer in three-fold concentration range (10 points serial dilution) for addition by FLIPR instrument. For all calcium assays, a baseline reading is taken for 10 seconds followed by the addition of 12.5 μl of compounds, resulting in a total well volume of 37.5 μl. Data is collected every second for 60 pictures and then every 6 seconds for 20 pictures prior to the addition of agonist. For hM3 and hM5, before agonist addition, a second baseline reading is taken for 10 seconds followed by the addition of 12.5 μl of agonist or buffer, producing a final volume of 50 μl. After agonist stimulation, the FLIPR continues to collect data every second for 60 pictures and then every 6 seconds for 20 pictures. The fluorescence emission is read using filter 1 (emission 510-570 nm) by the FLIPR on board CCD camera.
(§5) Calcium mobilization output data are calculated as the maximal relative fluorescence unit (RFU) minus the minimal value for both compound and agonist reading frame (except for hM1 and rM1 using only the maximal RFU). Data are analyzed using sigmoidal fits of a non-linear curve-fitting program (XLfit version 4.2.2 Excel add-in version 4.2.2 build 18 math 1Q version 2.1.2 build 18). All pEC50 and plC50 values are reported as arithmetic means ±standard error of mean of ‘n’ independent experiments.

[3] = target: T3, hM5 (human Muscarinic receptor subtype 5) (Homo sapiens, UniProt P08912); assay: Human M5 calcium mobilization FLIPR assay; conditions: hM5 expressed in CHO cells, intracellular Ca2+ release
T3 construct: expressed in transfected cells; host or cells: CHO cells (Chinese hamster ovary cells, ATCC)
T3 sequence (P08912 1-532): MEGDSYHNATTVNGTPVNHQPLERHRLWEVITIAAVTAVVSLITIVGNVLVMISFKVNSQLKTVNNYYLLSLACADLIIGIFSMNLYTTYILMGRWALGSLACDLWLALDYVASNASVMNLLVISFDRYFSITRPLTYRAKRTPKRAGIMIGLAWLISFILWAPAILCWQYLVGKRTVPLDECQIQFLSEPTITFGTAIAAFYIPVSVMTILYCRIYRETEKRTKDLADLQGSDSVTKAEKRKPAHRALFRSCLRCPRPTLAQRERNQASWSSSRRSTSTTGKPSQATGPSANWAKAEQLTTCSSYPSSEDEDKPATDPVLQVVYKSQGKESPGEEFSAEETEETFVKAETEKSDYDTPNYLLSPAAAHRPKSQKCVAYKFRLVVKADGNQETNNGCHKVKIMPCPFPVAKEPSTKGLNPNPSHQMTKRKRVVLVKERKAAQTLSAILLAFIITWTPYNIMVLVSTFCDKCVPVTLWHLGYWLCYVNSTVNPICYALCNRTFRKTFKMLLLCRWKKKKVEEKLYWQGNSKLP
Experimental: as §1, §2, §3, §4, §5

T2 sequence (P20309 whole entry): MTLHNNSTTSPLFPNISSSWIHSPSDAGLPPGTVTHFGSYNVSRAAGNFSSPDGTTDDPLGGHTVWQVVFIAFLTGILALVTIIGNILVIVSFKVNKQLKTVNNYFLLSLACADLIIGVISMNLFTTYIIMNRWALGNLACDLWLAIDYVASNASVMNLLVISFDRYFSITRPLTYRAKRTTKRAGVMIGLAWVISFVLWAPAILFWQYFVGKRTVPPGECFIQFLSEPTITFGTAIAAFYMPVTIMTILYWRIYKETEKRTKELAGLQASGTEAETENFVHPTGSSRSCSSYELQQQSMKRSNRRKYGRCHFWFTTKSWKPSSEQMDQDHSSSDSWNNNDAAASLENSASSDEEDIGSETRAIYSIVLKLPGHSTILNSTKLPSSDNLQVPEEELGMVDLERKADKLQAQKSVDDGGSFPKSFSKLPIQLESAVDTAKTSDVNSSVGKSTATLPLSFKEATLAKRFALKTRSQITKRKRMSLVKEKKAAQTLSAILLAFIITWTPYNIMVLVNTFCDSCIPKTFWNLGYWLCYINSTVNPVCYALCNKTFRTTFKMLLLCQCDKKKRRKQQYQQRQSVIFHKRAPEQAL

COC(=O)N1CCC(C)(N2CCC(N3C(=O)Cc4cc(F)c(C)cc43)CC2)C1 (single isomer, unassigned) [Example 83, methyl 3-(4-(5-fluoro-6-methyl-2-oxoindolin-1-yl)piperidin-1-yl)-3-methylpyrrolidine-1-carboxylate] showed an EC50 ([1]; hM1 EC50 (nM)) of 26.1 nM, an EC50 ([2]; hM3 EC50 (nM)) of over 18400 nM and an EC50 ([3]; hM5 EC50 (nM)) of 3560 nM.
With CCOC(=O)N1CCC(C)(N2CCC(n3c(=O)[nH]c4ccccc43)CC2)C1 (stereo not drawn) [Example 1, ethyl 3-methyl-3-(4-(2-oxo-2,3-dihydro-1H-benzo[d]imidazol-1-yl)piperidin-1-yl)pyrrolidine-1-carboxylate] the EC50 ([1]; read-out: hM1 EC50) was 4.2 nM, the EC50 ([2]; read-out: hM3 EC50) was 1400 nM and the EC50 ([3]; read-out: hM5 EC50) was 136 nM.
CCNC(=O)N1CCC(C)(N2CCC(n3c(=O)[nH]c4ccccc43)CC2)C1 (stereo not drawn) [Example 5, N-ethyl-3-methyl-3-(4-(2-oxo-2,3-dihydro-1H-benzo[d]imidazol-1-yl)piperidin-1-yl)pyrrolidine-1-carboxamide] was tested, and the EC50 ([1]; read-out: hM1 EC50) was 43.3 nM, the EC50 ([2]; read-out: hM3 EC50) was over 40000 nM and the EC50 ([3]; read-out: hM5 EC50) was over 2960 nM.
CC1(N2CCC(n3c(=O)[nH]c4cc(F)ccc43)CC2)CCN(C(=O)OCCF)C1 (stereo not drawn) [Example 10, 2-fluoroethyl 3-(4-(5-fluoro-2-oxo-2,3-dihydro-1H-benzo[d]imidazol-1-yl)piperidin-1-yl)-3-methylpyrrolidine-1-carboxylate] was tested, and the EC50 ([1]; read-out: hM1 EC50) was 26.3 nM, the EC50 ([2]; read-out: hM3 EC50) was over 40000 nM and the EC50 ([3]; read-out: hM5 EC50) was 537 nM.
